Patent EP3057951B1, “METHYLENE LINKED QUINOLINYL MODULATORS OF ROR-GAMMA-T” (Janssen Pharmaceutica NV, priority 2013, dated 2015)
Values joined by “and” are separate entries in the source; they are usually repeats but may differ in a detail not shown here. Identical values can stand only once.

Tests used:
[1] = target: T1, wild type human RORγt ligand binding domain (RORyt LBD) (Homo sapiens, UniProt P51449); assay: RORγt ThermoFluor assay (thermal shift, binding affinity KD)
T1 construct: His-tag (N); TurboTEV protease cleavage site (ENLYFQG) (N); made in house; host or cells: E. coli (pHIS1, modified pET vector)
T1 sequence (P51449 258-518): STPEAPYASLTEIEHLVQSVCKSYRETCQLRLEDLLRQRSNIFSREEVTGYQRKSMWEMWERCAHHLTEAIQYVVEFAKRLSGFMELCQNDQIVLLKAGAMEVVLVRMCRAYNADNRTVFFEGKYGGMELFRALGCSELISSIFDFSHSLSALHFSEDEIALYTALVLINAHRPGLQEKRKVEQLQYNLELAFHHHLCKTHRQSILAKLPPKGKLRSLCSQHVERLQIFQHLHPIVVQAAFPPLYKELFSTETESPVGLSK

[2] = target: T2, wild type human RORγt LBD (Homo sapiens, UniProt P51449); assay: RORγt (LBD) Reporter Assay (GAL4-luciferase, HEK293T cells); assay type: cell-based; conditions: for RORγt (LBD) Reporter Assay, % inhibition @ 6 µM: 6 µM compound concentration; for IC50: HEK293T cells, value after the comma with ∼, > or < could not be included in the average; for inhibition at 6 µM: HEK-293T, read-out: RORγt (LBD) Reporter Assay, % inhibition @ 6 µM, 6 µM compound concentration
T2 construct: expressed in transfected cells; host or cells: HEK293T
T2 sequence (P51449 258-518): T1 sequence (P51449 258-518)

| Compound | Kd [1] | RORγt (LBD) Reporter Assay, % inhibition @ 6 µM ([2]; 6 µM) | IC50 [2] | inhibition at 6 µM [2] | RORγt (LBD) Reporter Assay, % inhibition @ 6 µM [2] |
| --- | --- | --- | --- | --- | --- |
| COc1nc2ccc(C(O)(c3ccc(C)nc3C)c3cncn3C)cc2c(Cl)c1Cc1ccc(C(F)(F)F)cc1 (single isomer, unassigned) [Example 88b, (4-Chloro-2-methoxy-3-(4-(trifluoromethyl)benzyl)quinolin-6-yl)(2,6-dimethylpyridin-3-yl)(1-methyl-1H-imidazol-5-yl)methanol] | 480 nM | – | 740 nM | 95% | – |
| COc1nc2ccc(C(O)(c3sc(C)nc3C)c3cnnn3C)cc2cc1Cc1ccc(C(F)(F)F)cc1 (single isomer, unassigned) [Example 92b, (2,4-Dimethylthiazol-5-yl)(2-methoxy-3-(4-(trifluoromethyl)benzyl)quinolin-6-yl)(1-methyl-1H-1,2,3-triazol-5-yl)methanol] | 2000 nM | – | 2800 nM | 79% | – |
| COc1c(Cc2ccccc2)c(C(F)(F)F)nc2ccc(C(O)(c3ccccn3)c3cncn3C)cc12 (single isomer, unassigned) [Example 98b, (3-Benzyl-4-methoxy-2-(trifluoromethyl)quinolin-6-yl)(1-methyl-1H-imidazol-5-yl)(pyridin-2-yl)methanol] | 2200 nM | 74% | ~5000 nM | – | – |
| COc1c(Cc2ccccc2)c(C(F)(F)F)nc2ccc(C(O)(c3ccccn3)c3cncn3C)cc12 (single isomer, unassigned) [Example 98c, (3-Benzyl-4-methoxy-2-(trifluoromethyl)quinolin-6-yl)(1-methyl-1H-imidazol-5-yl)(pyridin-2-yl)methanol] | 380 nM | 96% | 420 nM | – | – |
| Cn1cncc1C(O)(c1ccc2nc(C(F)(F)F)c(Cc3ccccc3)c(C#N)c2c1)c1ccccn1 (single isomer, unassigned) [Example 99b, 3-Benzyl-6-(hydroxy(1-methyl-1H-imidazol-5-yl)(pyridin-2-yl)methyl)-2-(trifluoromethyl)quinoline-4-carbonitrile] | 810 nM | – | ~2000 nM | 86% | – |
| COc1c(Cc2ccccc2)c(C(F)(F)F)nc2ccc(C(O)(c3ccc(C(F)(F)F)nc3)c3cncn3C)cc12 (single isomer, unassigned) [Example 106b, (3-Benzyl-4-methoxy-2-(trifluoromethyl)quinolin-6-yl)(1-methyl-1H-imidazol-5-yl)(6-(trifluoromethyl)pyridin-3-yl)methanol] | 110 nM | 94% | 670 nM | – | – |
| Cn1cc(-c2nc3ccc(C(O)(c4ccc(C(F)(F)F)nc4)c4cncn4C)cc3c(Cl)c2Cc2ccccc2)cn1 (single isomer, unassigned) [Example 111b, (3-Benzyl-4-chloro-2-(1-methyl-1H-pyrazol-4-yl)quinolin-6-yl)(1-methyl-1H-imidazol-5-yl)(6-(trifluoromethyl)pyridin-3-yl)methanol] | 1400 nM | – | ~900 nM | 99% | – |
| Cn1cc(-c2nc3ccc(C(O)(c4ccc(C(F)(F)F)nc4)c4cncn4C)cc3c(Cl)c2Cc2ccccc2)cn1 (single isomer, unassigned) [Example 111c, (3-Benzyl-4-chloro-2-(1-methyl-1H-pyrazol-4-yl)quinolin-6-yl)(1-methyl-1H-imidazol-5-yl)(6-(trifluoromethyl)pyridin-3-yl)methanol] | 22000 nM | 92% | ~5000 nM | – | – |
| Cn1cc(-c2nc3ccc(C(O)(c4ccc(C(F)(F)F)nc4)c4cncn4C)cc3c(C#N)c2Cc2ccccc2)cn1 (single isomer, unassigned) [Example 112b, 3-Benzyl-6-(hydroxy(1-methyl-1H-imidazol-5-yl)(6-(trifluoromethyl)pyridin-3-yl)methyl)-2-(1-methyl-1H-pyrazol-4-yl)quinoline-4-carbonitrile] | 2200 nM | 92% | 450 nM | – | – |
| Cn1cc(-c2nc3ccc(C(O)(c4ccc(C(F)(F)F)nc4)c4cncn4C)cc3c(C#N)c2Cc2ccccc2)cn1 (single isomer, unassigned) [Example 112c, 3-Benzyl-6-(hydroxy(1-methyl-1H-imidazol-5-yl)(6-(trifluoromethyl)pyridin-3-yl)methyl)-2-(1-methyl-1H-pyrazol-4-yl)quinoline-4-carbonitrile] | 13000 nM | 71% | ~5000 nM | – | – |

Now those with a lower Kd [1], led by results:

| Kd [1] | RORγt (LBD) Reporter Assay, % inhibition @ 6 µM ([2]; 6 µM) | IC50 [2] | inhibition at 6 µM [2] | RORγt (LBD) Reporter Assay, % inhibition @ 6 µM [2] | Compound |
| --- | --- | --- | --- | --- | --- |
| 2.8 nM | 100% | 17 nM | – | – | COc1nc2ccc(C(O)(c3cnnn3C)C3CCOCC3)cc2c(Cl)c1Cc1ccc(C(F)(F)F)cc1 (single isomer, unassigned) [Example 85c, (4-Chloro-2-methoxy-3-(4-(trifluoromethyl)benzyl)quinolin-6-yl)(1-methyl-1H-1,2,3-triazol-5-yl)(tetrahydro-2H-pyran-4-yl)methanol] |
| 0.73 nM | – | 13 nM | 100% | – | COc1nc2ccc(C(O)(c3ccc(C)nc3C)C3CN(C(C)=O)C3)cc2c(Cl)c1Cc1ccc(C(F)(F)F)cc1 (single isomer, unassigned) [Example 87b, 1-(3-((4-Chloro-2-methoxy-3-(4-(trifluoromethyl)benzyl)quinolin-6-yl)(2,6-dimethylpyridin-3-yl)(hydroxy)methyl)azetidin-1-yl)ethanone] |
| 3 nM | 97% | 15 nM | – | – | COc1nc2ccc(C(O)(c3ccc(C)nc3C)C3CN(C(C)=O)C3)cc2c(Cl)c1Cc1ccc(C(F)(F)F)cc1 (single isomer, unassigned) [Example 87c, 1-(3-((4-Chloro-2-methoxy-3-(4-(trifluoromethyl)benzyl)quinolin-6-yl)(2,6-dimethylpyridin-3-yl)(hydroxy)methyl)azetidin-1-yl)ethanone] |
| 0.08 nM | 98% | 10 nM | – | – | COc1nc2ccc(C(O)(c3ccc(C)nc3C)c3cncn3C)cc2c(Cl)c1Cc1ccc(C(F)(F)F)cc1 (single isomer, unassigned) [Example 88c, (4-Chloro-2-methoxy-3-(4-(trifluoromethyl)benzyl)quinolin-6-yl)(2,6-dimethylpyridin-3-yl)(1-methyl-1H-imidazol-5-yl)methanol] |
| 1.2 nM | – | < 2 nM | 97% | – | COc1nc2ccc(C(O)(c3cncn3C)c3cnnn3C)cc2c(Cl)c1Cc1ccc(C(F)(F)F)cc1 (single isomer, unassigned) [Example 89b, (4-Chloro-2-methoxy-3-(4-(trifluoromethyl)benzyl)quinolin-6-yl)(1-methyl-1H-1,2,3-triazol-5-yl)(1-methyl-1H-imidazol-5-yl)methanol] |
| 0.26 nM | – | < 2 nM | – | 97% | COc1nc2ccc(C(O)(c3cncn3C)c3cnnn3C)cc2c(Cl)c1Cc1ccc(C(F)(F)F)cc1 (single isomer, unassigned) [Example 89c, (4-Chloro-2-methoxy-3-(4-(trifluoromethyl)benzyl)quinolin-6-yl)(1-methyl-1H-1,2,3-triazol-5-yl)(1-methyl-1H-imidazol-5-yl)methanol] |
| 19 nM | 96% | 30 nM | – | – | COc1nc2ccc(C(O)(c3sc(C)nc3C)c3cnnn3C)cc2cc1Cc1ccc(C(F)(F)F)cc1 (single isomer, unassigned) [Example 92c, (2,4-Dimethylthiazol-5-yl)(2-methoxy-3-(4-(trifluoromethyl)benzyl)quinolin-6-yl)(1-methyl-1H-1,2,3-triazol-5-yl)methanol] |
| 12 nM | 97% | 20 nM | – | – | Cn1cncc1C(O)(c1ccc2nc(C(F)(F)F)c(Cc3ccccc3)c(C#N)c2c1)c1ccccn1 (single isomer, unassigned) [Example 99c, 3-Benzyl-6-(hydroxy(1-methyl-1H-imidazol-5-yl)(pyridin-2-yl)methyl)-2-(trifluoromethyl)quinoline-4-carbonitrile] |
| 18 nM | 65% | ~5000 nM | – | – | COc1c(Cc2ccccc2)c(C(F)(F)F)nc2ccc(C(O)(c3ccc(C(F)(F)F)nc3)c3cncn3C)cc12 (single isomer, unassigned) [Example 106c, (3-Benzyl-4-methoxy-2-(trifluoromethyl)quinolin-6-yl)(1-methyl-1H-imidazol-5-yl)(6-(trifluoromethyl)pyridin-3-yl)methanol] |
| 1.2 nM | 55% | 1100 nM | – | – | Cn1cncc1C(O)(c1ccc(C(F)(F)F)nc1)c1ccc2nc(C(F)(F)F)c(Cc3ccccc3)c(C#N)c2c1 (single isomer, unassigned) [Example 108b, 3-Benzyl-6-(hydroxy(1-methyl-1H-imidazol-5-yl)(6-(trifluoromethyl)pyridin-3-yl)methyl)-2-(trifluoromethyl)quinoline-4-carbonitrile] |
| 46 nM | 83% | 960 nM and ~1000 nM | – | – | Cn1cncc1C(O)(c1ccc(C(F)(F)F)nc1)c1ccc2nc(C(F)(F)F)c(Cc3ccccc3)c(C#N)c2c1 (single isomer, unassigned) [Example 108c, 3-Benzyl-6-(hydroxy(1-methyl-1H-imidazol-5-yl)(6-(trifluoromethyl)pyridin-3-yl)methyl)-2-(trifluoromethyl)quinoline-4-carbonitrile] |
